Test results from ChEMBL document CHEMBL1157008, “Discovery of 2-{4-[(3S)-piperidin-3-yl]phenyl}-2H-indazole-7-carboxamide (MK-4827): a novel oral poly(ADP-ribose)polymerase (PARP) inhibitor efficacious in BRCA-1 and -2 mutant tumors” (J Med Chem, 2009).
The source made the active and inactive calls. The calls are words filed in the database; no cut-off is given here.

Tests used:
[1] = biological target: Poly [ADP-ribose] polymerase 1 (Homo sapiens, UniProt P09874); assay: Inhibition of human PARP1 by SPA
PARP 1, 2 and 3 [2] = biological target: T1, PARP 1, 2 and 3 (Homo sapiens, UniProt P09874+Q9Y6F1+Q9UGN5); conditions: HeLa
PARP 1, 2 and 3 [3] = biological target: T1, PARP 1, 2 and 3; assay: Inhibition of PARP in hydrogen peroxide-induced human HeLa cells assessed as inhibition DNA-damage-induced PARylation; assay type: cell-based
HeLa [4] = assay: Selectivity index, ratio of CC50 for BRCA1 proficient human HeLa cells to CC50 for BRCA1 deficient human HeLa cells; assay type: functional
HeLa [5] = assay: Antiproliferative activity against human HeLa cells expressing wild type BRCA1 after 7 days by cell titer-blue assay; assay type: functional; conditions: 168 h
HeLa [6] = assay: Antiproliferative activity against BRCA1 deficient human HeLa cells after 7 days by cell titer-blue assay; assay type: functional; conditions: 168 h
[7] = Intrinsic clearance in rat liver microsomes assessed per mg of protein up to 90 mins; assay type: ADME, Microsome
[8] = Terminal half life in rat; assay type: ADME, organism-based; conditions: in vivo, read-out: beta t1/2 (converted)
[9] = Oral bioavailability in rat; assay type: ADME, organism-based; conditions: in vivo
[10] = Intrinsic clearance in mouse liver microsomes assessed per mg of protein up to 90 mins; assay type: ADME, Microsome
[11] = Plasma clearance in rat; assay type: ADME, organism-based
[12] = Volume of distribution in rat; assay type: ADME, organism-based; conditions: in vivo
CYP1A2 = biological target: T2, CYP1A2 (Rattus norvegicus, UniProt P04799); assay: (§1) Intrinsic clearance in rat liver microsomes assessed per mg of protein up to 60 mins in presence of rat recombinant CYP1A2; assay type: ADME, Microsome; conditions: rat liver microsomes with rat recombinant CYP1A2
T2 sequence (P04799 whole entry): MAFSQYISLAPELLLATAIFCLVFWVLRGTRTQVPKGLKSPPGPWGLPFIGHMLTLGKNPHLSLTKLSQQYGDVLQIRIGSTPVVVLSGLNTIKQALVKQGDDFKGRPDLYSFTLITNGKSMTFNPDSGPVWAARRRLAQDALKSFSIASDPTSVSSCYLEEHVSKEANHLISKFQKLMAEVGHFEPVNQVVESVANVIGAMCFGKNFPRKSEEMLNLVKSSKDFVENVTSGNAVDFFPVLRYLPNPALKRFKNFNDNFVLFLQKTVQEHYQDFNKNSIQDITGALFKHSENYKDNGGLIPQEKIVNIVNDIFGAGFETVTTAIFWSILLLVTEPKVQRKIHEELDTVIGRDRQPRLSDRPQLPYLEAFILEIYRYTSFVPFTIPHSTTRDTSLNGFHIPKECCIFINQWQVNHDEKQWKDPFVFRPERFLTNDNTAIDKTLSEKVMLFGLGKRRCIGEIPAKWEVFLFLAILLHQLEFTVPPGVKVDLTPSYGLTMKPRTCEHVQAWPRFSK

Cytochrome P450 1A2 = biological target: T3, Cytochrome P450 1A2 (Rattus norvegicus, UniProt P04799); assay: as §1; assay type: ADME, Microsome; conditions: microsomes, 1 h
T3 sequence (P04799 whole entry): T2 sequence (P04799 whole entry)

MDA-MB-436 [13] = conditions: Homo sapiens, 50 mg/kg
Description: Antitumor activity against human MDA-MB-436 cells expressing BRCA1 5396 + 1G>A mutant xenografted in CD1 mouse assessed as tumor regression at 50 mg/kg, po bid for 33 days

[14] = Antiproliferative activity against human PrEC cells after 6 to 7 days by cell titer-blue assay
MDA-MB-436 [15] = conditions: Homo sapiens, 100 mg/kg
Description: Antitumor activity against human MDA-MB-436 cells expressing BRCA1 5396 + 1G>A mutant xenografted in CD1 mouse assessed as tumor regression at 100 mg/kg, po qd for 33 days

[16] = Antiproliferative activity against HMEC after 6 to 7 days by cell titer-blue assay; conditions: human, HMEC cells
CAPAN-1 = assay: cells; conditions: Homo sapiens, CAPAN-1, 312 h
Description: Antiproliferative activity against human Capan1 cells expressing BRCA2 6174delT mutation and loss of wild-type allele after 13 days by cell titer-blue assay

cells = conditions: Homo sapiens, MDA-MB-436, 144 h
Description: Antiproliferative activity against human MDA-MB-436 cells expressing BRCA1 5396 + 1G>A mutant after 6 days by cell titer-blue assay

[17] = Intrinsic clearance in rat kidney microsomes assessed per mg of protein in presence of NADPH; assay type: ADME, Microsome
[18] = Intrinsic clearance in rat intestine microsomes assessed per mg of protein in presence of NADPH; assay type: ADME, Microsome
[19] = Metabolic stability in rat heart microsomes assessed as compound degradation in presence of NADPH; assay type: ADME
[20] = Biodistribution in iv dosed rat urine within 24 hrs; assay type: ADME, organism-based; conditions: in vivo
[21] = Intrinsic clearance in rat liver microsomes assessed per mg of protein in presence of NADPH; assay type: ADME, Microsome
[22] = Biodistribution in iv dosed rat urine assessed as tert-butyl (3S)-3-{4-[7-(aminocarbonyl)-2H-indazol-2-yl]phenyl}piperidine-1-carboxylate level within 24 hrs; assay type: ADME, organism-based; conditions: in vivo
[23] = Intrinsic clearance in rat lung microsomes assessed per mg of protein in presence of NADPH; assay type: ADME, Microsome
[24] = Solubility in phosphate buffer; assay type: physicochemical

Poly [ADP-ribose] polymerase 1, sequence (P09874 whole entry): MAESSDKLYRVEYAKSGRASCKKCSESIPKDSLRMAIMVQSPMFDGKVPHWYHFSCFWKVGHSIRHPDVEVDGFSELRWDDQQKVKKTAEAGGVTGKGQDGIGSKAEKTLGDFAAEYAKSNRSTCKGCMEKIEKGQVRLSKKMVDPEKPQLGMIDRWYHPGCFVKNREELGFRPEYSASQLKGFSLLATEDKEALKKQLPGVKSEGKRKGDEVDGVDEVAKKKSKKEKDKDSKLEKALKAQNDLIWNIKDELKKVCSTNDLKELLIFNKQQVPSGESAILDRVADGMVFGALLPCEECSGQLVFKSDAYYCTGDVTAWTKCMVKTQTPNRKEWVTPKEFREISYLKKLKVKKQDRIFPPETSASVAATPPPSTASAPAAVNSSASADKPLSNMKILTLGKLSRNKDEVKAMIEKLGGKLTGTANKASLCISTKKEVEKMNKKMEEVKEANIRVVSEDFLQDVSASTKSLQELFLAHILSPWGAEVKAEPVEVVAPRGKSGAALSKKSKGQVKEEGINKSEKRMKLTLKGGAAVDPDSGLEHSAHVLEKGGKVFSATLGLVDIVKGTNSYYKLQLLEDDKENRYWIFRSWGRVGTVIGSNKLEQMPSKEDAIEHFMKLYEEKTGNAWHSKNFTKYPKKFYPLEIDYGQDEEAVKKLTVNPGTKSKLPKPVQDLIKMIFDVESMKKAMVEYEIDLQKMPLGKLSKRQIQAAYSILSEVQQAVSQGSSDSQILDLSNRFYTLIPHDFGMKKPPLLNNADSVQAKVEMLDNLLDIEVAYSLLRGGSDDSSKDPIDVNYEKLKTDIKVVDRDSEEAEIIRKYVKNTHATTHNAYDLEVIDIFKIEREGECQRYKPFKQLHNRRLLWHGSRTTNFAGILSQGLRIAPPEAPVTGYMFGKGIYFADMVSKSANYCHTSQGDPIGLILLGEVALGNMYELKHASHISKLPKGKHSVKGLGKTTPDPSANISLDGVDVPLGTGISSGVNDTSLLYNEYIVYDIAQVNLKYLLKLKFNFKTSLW

IC50 [1] [nM]	EC90 (PARP 1, 2 and 3 [2]) [nM]	microsomal CLint [7] [µL/min/mg]	microsomal CLint [10] [µL/min/mg]	clearance [11] [mL/min/kg]	microsomal CLint (CYP1A2) [µL/min/mg]	Compound	EC50 (PARP 1, 2 and 3 [3]) [nM]	CC50 (HeLa [5]) [µM]	CC50 (HeLa [6]) [nM]	also measured
24	6700	–	–	–	–	NC(=O)c1cccc2cn(-c3ccc(Cl)cc3)nc12	720	–	–	–
4.8	450	–	–	–	–	NC(=O)c1cccc2cn(-c3ccc(CN4CCCC4)cc3)nc12	94	8.1	1200	Selectivity Index (HeLa [4]): 5
200	–	–	–	–	–	CNCCc1ccc(-n2cc3cccc(C(N)=O)c3n2)cc1	–	> 20	19000	–
14	5600	–	–	–	–	NC(=O)c1cccc2cn(-c3cccc(Cl)c3)nc12	450	–	–	–
4.3	2100	–	–	–	–	CCNCc1ccc(-n2cc3cccc(C(N)=O)c3n2)cc1	150	7.4	1600	–
24	6200	123	138	30	–	NC(=O)c1cccc2cn(-c3ccccc3)nc12	3700	–	–	half-life [8]: 306 min; bioavailability [9]: 41%; Vd [12]: 1.8 L/kg
31	2700	34	2	8	< 0.1	CN1CCN(Cc2ccc(-n3cc4cccc(C(N)=O)c4n3)cc2)CC1	1100	7.9	2700	Selectivity Index (HeLa [4]): 3; bioavailability [9]: 11%
–	220	11	1	47	–	NC(=O)c1cccc2cn(-c3ccc(C4CCCNC4)cc3)nc12 (stereo not given)	–	2	72	bioavailability [9]: 74%; CL (Cytochrome P450 1A2): 0.3 µL/min/mg
5.9	4400	–	–	–	–	CN(C)CCN(C)Cc1ccc(-n2cc3cccc(C(N)=O)c3n2)cc1	170	> 20	3900	–
6.7	2000	18	1	131	0.8	CC(C)NCc1ccc(-n2cc3cccc(C(N)=O)c3n2)cc1	700	10	2000	–
–	45	16	4	28	–	NC(=O)c1cccc2cn(-c3ccc([C@@H]4CCCNC4)cc3)nc12 [NIRAPARIB]	–	0.86	33	bioavailability [9]: 65%; inhibition (MDA-MB-436 [13]): Active; CC50 [14]: > 5 µM; inhibition (MDA-MB-436 [15]): Active; CC50 [16]: > 5 µM; CL (Cytochrome P450 1A2): 0.3 µL/min/mg; CC50 (CAPAN-1): 90 nM; CC50 (cells): 18 nM
71	–	–	–	–	–	NC(=O)c1cccc2nn(-c3ccccc3)nc12	–	–	–	–
3.7	680	9	1	58	2.2	CNC(C)c1ccc(-n2cc3cccc(C(N)=O)c3n2)cc1 (stereo not given)	58	14	3100	–
3.8	740	28	3	220	6	CNCc1ccc(-n2cc3cccc(C(N)=O)c3n2)cc1	68	5.4	460	microsomal CLint [17]: 22 µL/min/mg; microsomal CLint [18]: 5 µL/min/mg; Selectivity Index (HeLa [4]): 10; bioavailability [9]: 23%; Stability [19]: Stable; Drug uptake [20]: 80 %ID; microsomal CLint [21]: 28 µL/min/mg; Drug uptake [22]: 50 %ID; microsomal CLint [23]: 22 µL/min/mg
5.3	–	32	5	69	5.4	CNCc1cccc(-n2cc3cccc(C(N)=O)c3n2)c1	–	> 20	10300	–
14	7600	–	–	–	–	NC(=O)c1cccc2cn(-c3ccc(CNCC(F)F)cc3)nc12	3400	> 6.6	> 6600	–
1.4	140	36	3	–	–	NC(=O)c1cccc2cn(-c3ccc4c(c3)CCNC4)nc12	13	5.4	270	Selectivity Index (HeLa [4]): 20; bioavailability [9]: 22%; CL (Cytochrome P450 1A2): 0.7 µL/min/mg
3.7	630	177	1	450	–	CN(C)Cc1ccc(-n2cc3cccc(C(N)=O)c3n2)cc1	110	5.6	520	Selectivity Index (HeLa [4]): 10; solubility [24]: > 3000 µg/mL; CL (Cytochrome P450 1A2): 8.7 µL/min/mg
–	280	7	3	24	< 0.1	NC(=O)c1cccc2cn(-c3ccc([C@H]4CCCNC4)cc3)nc12	–	5.7	470	bioavailability [9]: 47%
16	900	11	< 1	–	–	CNC(C)(C)c1ccc(-n2cc3cccc(C(N)=O)c3n2)cc1	110	5.5	920	CL (Cytochrome P450 1A2): 0.4 µL/min/mg
2.1	–	–	–	–	–	NC(=O)c1cccc2cn(-c3ccc(CNCCF)cc3)nc12	> 5000	–	–	–
100	–	–	–	–	–	NC(=O)c1cccc2cn(-c3ccccc3Cl)nc12	–	–	–	–

Compound	IC50 [1] [nM]	EC90 (PARP 1, 2 and 3 [2]) [nM]	microsomal CLint [7] [µL/min/mg]	microsomal CLint [10] [µL/min/mg]	clearance [11] [mL/min/kg]	microsomal CLint (CYP1A2) [µL/min/mg]	EC50 (PARP 1, 2 and 3 [3]) [nM]	CC50 (HeLa [5]) [µM]	CC50 (HeLa [6]) [nM]	also measured
NC(=O)c1cccc2cc(-c3ccccc3)nn12	55	–	–	–	–	–	–	–	–	–
NC(=O)c1cccn2nc(-c3ccccc3)nc12	270	–	–	–	–	–	–	–	–	–
NC(=O)c1cccc2cn(-c3ccc4c(c3)CNCC4)nc12	2.2	310	52	4	87	0.7	46	2.2	130	Selectivity Index (HeLa [4]): 16
NC(=O)c1cccc2cn(-c3ccc(CN4CCOCC4)cc3)nc12	17	6200	–	–	–	–	1200	> 20	5300	–
NC(=O)c1cccc2cn(-c3ccc(C4CCNCC4)cc3)nc12	9	–	15	5	–	< 0.1	–	4.5	410	–
NC(=O)c1cccc2cn(-c3ccc(C4CCCN4)cc3)nc12 (stereo not given)	3.1	430	22	4	–	2.5	31	10	190	–
NC(=O)c1cccc2cn(-c3ccc(CN4CCCCC4)cc3)nc12	1.9	970	29	3	107	3.8	180	5.8	880	Selectivity Index (HeLa [4]): 5
NC(=O)c1cccc2cn(Cc3ccccc3)nc12	130	> 5000	–	–	–	–	> 5000	–	–	–
